Results published in US8809550B2, “Androgen receptor antagonists and uses thereof” (priority 2009, dated 2014).
pIC50: −log10 of the molar value. Read-outs that look alike come from different tables or passages of the source.

Legend:
[1] = system: Prostate-specific Antigen (PSA) production in LNCaP cells; experiment: PSA assay: inhibition of PSA production in LNCaP cells (ELISA); type: cell-based; conditions: Homo sapiens; for pIC50: 72 h, R1881 1 ng/ml, three days, seven point assay
Experimental: (§1) PSA Assay (Inhibition Test of the Compound of the Present Invention on Prostate-Specific Antigen (PSA) Production in Various Prostate Cancer Cells)
(§2) Androgen dependent LNCaP and 22RV1 cells were purchased from the American Type Culture Collection (ATCC, Manassas, Va.). These cells were grown in RPMI 1640 medium supplemented with 10% fetal bovine serum (FBS), 100 U/mL penicillin, 100 μg/mL streptomycin, and 0.25 μg/mL amphotericin B. The cells were maintained at 37° C. and 5% CO2. LNCaP cells between passage 20 and 35, and 22RV1 cells between passage 30 and 50 were used for experiments. LNCaP is a hormone sensitive cell line, while 22RV1 is a hormone refractory prostate cancer cell line, which derived from a primary prostate tumor. This cell line was isolated from a xenograft (CWR22R-2152) that was serially propagated in mice after castration-induced regression and relapse of the parental, androgen-dependent CWR xenograft. For the PSA assay, human prostate cancer cells LNCaP or 22RV1 were seeded in a 96-well plate at a concentration of 5000 cells/100 μl/well. On the following day, Methyltrienolone (R1881, AR agonist) (final concentration 1 ng/ml), test compounds or bicalutamide (Casodex®, AstraZeneca) (final concentration 0.005 to 20 μM) were added. Three days after the addition, the concentration of PSA in the supernatant of the culture solution was measured by ELISA. ELISAs for human PSA in culture medium were performed using the ultra-sensitive assay procedure and reagents in the Active™ PSA assay kit (Diagnostic Systems Laboratories Inc., Webster, Tex.). Culture medium and standards (200 μl/well) were incubated in antibody-coated plates for 2 h at room temperature on a Titer plate shaker at 500-600 rpm. Wells were then washed five times. The HRP conjugate was diluted 1:20 with assay buffer, and 100 μl was added to all wells. The plates were incubated for 30 min at room temperature on the shaker and washed as before, and 100 μl TMB (3,3′,5,5′-tetramethylbenzidine, 0.4 g/l) was added. The plates were incubated for 10 min on the shaker, and the reaction was terminated with 100 μl stop solution. The plates were read using a plate reader at 450 nm with a 650 nm reference filter. PSA levels were normalized for differences in growth of LNCaP or 22RV1 cells following various treatments as determined by the MTS assay. IC50 of PSA was calculated based on a seven point assay (concentrations of tested compound) and expressed as micromolar (uM). Results on 22RV1 cells are shown as percent inhibition at 2 micromolar (uM). ND means not determined

[2] = system: Prostate-specific Antigen (PSA) production in 22RV1 cells; experiment: PSA assay: inhibition of PSA production in 22RV1 cells (ELISA); type: cell-based; conditions: Homo sapiens, 72 h, R1881 1 ng/ml, three days
Experimental: as §1
as §2, with “Results on 22RV1 cells are shown as percent inhibition at 2 micromolar (uM).” left out

[3] = system: 22RV1 cells; experiment: Cell viability assay, 22RV1 cells; type: cell-based, human; conditions: for cytotoxicity at 2.5 µM: Homo sapiens, read-out: Inhibition of cell viability, 22RV1 % inhibition at 2.5 uM
Experimental: (§3) LNCaP and 22RV1 cells were maintained in RPMI 1640 medium supplemented with 10% fetal bovine serum (FBS), 100 U/mL penicillin, 100 μg/mL streptomycin, and 0.25 μg/mL amphotericin B, splitting cells when they reached 80-90% confluence. In order to test compounds, 10,000 cells/well were plated in 96 cell culture plates using 100 ul/well plating medium, cultured overnight at 37° C. in a cell culture incubator. After carefully remove plating medium, 80 ul/well of pre-warmed assay medium was added, followed by adding 10 ul/well test compounds or bicalutamide (final concentration from 20 uM to 0.1 uM), incubated at 37° C. for 30 minutes, then adding 10 ul/well freshly prepared Methyltrienolone (R1881, AR agonist) (final concentration 1 ng/ml) to each well, incubate at 37° C. for 48-hour. At the end of incubation, 20 μl MTT (2.5 mg/ml in PBS) was added to each well, and the cells were further incubated for 2 h at 37 C to allow a complete reaction between the dye and the enzyme mitochondrial dehydrogenase in the viable cells. After removal of the residual dye and medium, 100 μl dimethylsulfoxide was added to each well, and the absorbance at 570 nm was measured with an microplate reader. The fold induction over background by 1 nM R1881 in the absence of test compounds is standardized as 100% and experimental result is expressed as percentage of inhibition by testing compounds at 2.5 micromolar (uM).

[4] = system: LNCaP cells; experiment: Cell viability assay, LNCaP cells; type: cell-based; conditions: Homo sapiens, read-out: Inhibition of cell viability, LNCaP % inhibition at 2.5 uM
Experimental: as §3

[5] = 22RV1 cells, 2.5 uM, R1881 1 ng/ml, 48-hour
[6] = LNCaP cells, 2.5 uM, R1881 1 ng/ml, 48-hour

Row | SMILES | pIC50 [1] | inhibition at 2 µM [2] [%] | cytotoxicity at 2.5 µM ([3]; 22Rv1, 48 h) [%] | cytotoxicity at 2.5 µM ([4]; LNCaP, 48 h) [%] | cytotoxicity at 2.5 µM [3, 5] [%] | cytotoxicity at 2.5 µM [4, 6] [%] | inhibition at 1 µM ([1]; 1 micromolar (summary text b205)) [%] | Inhibition of cell viability, 22RV1 % inhibition at 2.5 uM [3, 5] [%]
1 | CC1(C)C(=O)N(c2ccc(C#N)c(Cl)c2F)C(=S)N1c1ccc(C#N)cc1 [Example 18, 4-(4,4-Dimethyl-5-oxo-2-thioxo-3-p-cyanophenyl-imidazolidin-1-yl)-3-fluoro-2-chloro-benzonitrile] | 7.04 | 89 | 57 | 91 |  |  |  | 
2 | CNC(=O)c1ccc(N2C(=S)N(c3ccc(C#N)c(C(F)(F)F)c3F)C(=O)C23CCC3)cc1F [Example 10, 4-[7-(4-Cyano-2-fluoro-3-trifluoromethyl-phenyl)-8-oxo-6-thioxo-5,7-diaza-spiro[3.4]oct-5-yl]-2-fluoro-N-methyl-benzamide] | 6.42 | 78 | 69 | 91 |  |  |  | 
3 | Cc1ccc(N2C(=S)N(c3ccc(C#N)c(C#N)c3)C(=O)C2(C)C)cc1 [Example 24, 4-(4,4-Dimethyl-5-oxo-2-thioxo-3-p-tolyl-imidazolidin-1-yl)-phthalonitrile] | 6.70 | 91 | 27 | 47 |  |  |  | 
4 | CNC(=O)c1ccc(N2C(=S)N(c3ccc(C#N)c(OC)c3)C(=O)C23CCC3)cc1F [Example 2, 4-[7-(4-Cyano-3-methoxy-phenyl)-8-oxo-6-thioxo-5,7-diaza-spiro[3.4]oct-5-yl]-2-fluoro-N-methyl-benzamide] | 6.35 | 47 | 41 | 59 |  |  |  | 
5 | CNC(=O)c1ccc(N2C(=S)N(c3ccc(C#N)c(Cl)c3F)C(=O)C2(C)C)cc1F [Example 11, 4-[3-(3-Chloro-4-cyano-2-fluoro-phenyl)-5,5-dimethyl-4-oxo-2-thioxo-imidazolidin-1-yl]-2-fluoro-N-methyl-benzamide] | 6.64 | 81 | 56 | 85 |  |  |  | 
6 | COc1c(C#N)ccc(N2C(=O)C(C)(C)N(c3ccc(C)nc3)C2=S)c1F [Example 20, 4-[4,4-Dimethyl-3-(6-methyl-pyridin-3-yl)-5-oxo-2-thioxo-imidazolidin-1-yl]-3-fluoro-2-methoxy-benzonitrile] | 6.55 | 69 | 44 | 68 |  |  |  | 
7 | COc1c(C#N)ccc(N2C(=O)C(C)(C)N(c3ccc(C#N)cc3)C2=S)c1F [Example 32, 4-(4,4-Dimethyl-5-oxo-2-thioxo-3-p-cyanophenyl-imidazolidin-1-yl)-3-fluoro-2-methoxy-benzonitrile] | 6.92 | 88 |  |  | 64 | 87 |  | 
8 | CC(O)(CS(=O)(=O)c1ccc(F)cc1)C(=O)Nc1ccc(C#N)c(C(F)(F)F)c1 (stereo not drawn) [Bicalutamide, bicalutamide, reference compound] | 5.51 | 18 |  |  | < 10 | 21 | 34 | <10
9 | COc1c(C#N)ccc(N2C(=O)C(C)(C)N(c3ccc(F)cc3)C2=S)c1F [Example 19, 3-Fluoro-4-[3-(4-fluoro-phenyl)-4,4-dimethyl-5-oxo-2-thioxo-imidazolidin-1-yl]-2-methoxy-benzonitrile] | 6.54 | 72 |  |  | 63 | 87 |  | 
10 | CNC(=O)c1ccc(N2C(=S)N(c3ccc(C#N)c(Cl)c3F)C(=O)C23CCC3)cc1F [Example 8, 4-[7-(3-Chloro-4-cyano-2-fluoro-phenyl)-8-oxo-6-thioxo-5,7-diaza-spiro[3.4]oct-5-yl]-2-fluoro-N-methyl-benzamide] | 6.07 | 77 | 59 | 86 |  |  |  | 
